Source: patent US8034806B2, “Bicyclic mGluR5 positive allosteric modulators and methods of making and using same” (Vanderbilt University, priority 2007, dated 2011)

Biological target: T1, rat mGluR5 (Rattus norvegicus, UniProt P31424)
T1 construct: expressed in transfected cells; host or cells: HEK (human embryonic kidney) cells
Assay: Potentiation of glutamate response, calcium fluorescence (FDSS) in HEK cells transfected with rat mGluR5
Format: cell-based
Details: for EC50: HEK cells transfected with rat mGluR5, EC20 concentration of glutamate, read-out: mGluR5 Potentiator EC50; for mGluR5 Potentiator Max: maximum extent of potentiation, normalized to the maximal response to agonist, in % (unit assumed)
Description: Human embryonic kidney (HEK) cells transfected with rat mGluR5 were plated in clear bottom assay plates for assay in a Functional Drug Screening System (FDSS). The cells were loaded with a […] fluorescent dye (e.g., Fluo-4), and the plates were washed and placed in the FDSS instrument. After establishment of a fluorescence baseline for twelve seconds, the compounds of the present invention were added to the cells, and the response in cells was measured. Five minutes later, an mGluR5 agonist (e.g., glutamate, 3,5-dihydroxyphenylglycine, or quisqualate) was added to the cells, and the response of the cells was measured. Potentiation of the agonist response of mGluR5 by the compounds in the present invention was observed as an increase in response to non-maximal concentrations of agonist (here, glutamate) in the presence of compound compared to the response to agonist in the absence of compound.
The above described assay operated in two modes. In the first mode, a range of concentrations of the present compounds were added to cells, followed by a single fixed concentration of agonist. If a compound acted as a potentiator, an EC50 value for potentiation and a maximum extent of potentiation by the compound at this concentration of agonist was determined by non-linear curve fitting. In the second mode, several fixed concentrations of the present compounds were added to various wells on a plate, followed by a range of concentrations of agonist for each concentration of present compound; the EC50 values for the agonist at each concentration of compound were determined by non-linear curve fitting. A decrease in the EC50 value of the agonist with increasing concentrations of the present compounds (a leftward shift of the agonist concentration-response curve) is an indication of the degree of mGluR5 potentiation at a given concentration of the present compound. An increase in the EC50 value of the agonist with increasing concentrations of the present compounds (a rightward shift of the agonist concentration-response curve) is an indication of the degree of mGluR5 antagonism at a given concentration of the present compound. The second mode also indicates whether the present compounds also affect the maximum response to mGluR5 to agonists.
Human embryonic kidney (HEK) cells transfected with rat mGluR5 were plated in clear-bottomed, poly-D-lysine-coated assay plates in glutamate-glutamine-free medium growth and incubated overnight at 37° C. in 5% CO2. The following day, cells were loaded with 2 μM calcium indicator dye, fluo-4 AM, for 1 h at 37° C. Dye was removed and replaced with assay buffer containing 1× Hanks balanced salt solution (Invitrogen, Carlsbad, Calif.), 20 mM HEPES, and 2.5 mM probenecid, pH 7.4. Cell plates were then loaded into the Functional Drug Screening System 6000 (FDSS 6000, Hamamatsu, Japan). After establishment of a fluorescence baseline for twelve seconds, the compounds of the present invention were added to the cells, and the response in cells was measured. Five minutes later, an mGluR5 agonist (e.g., glutamate, 3,5-dihydroxyphenylglycine, or quisqualate) was added to the cells, and the response of the cells was measured during a 1 minute incubation with agonists. Typically, the effect of test compounds of the present invention was on an EC20 concentration of glutamate was measured. All test compounds were dissolved and diluted in 100% DMSO and then serially diluted into assay buffer for a 2.5× stock in 0.25% DMSO; stock compounds were then added to the assay for a final DMSO concentration of 0.1%. Calcium fluorescence measures were recorded as fold over basal fluorescence; raw data was then normalized to the maximal response to agonist. Potentiation of the agonist response of mGluR5 by the compounds in the present invention was observed as an increase in response to non-maximal concentrations of agonist (here, glutamate) in the presence of compound compared to the response to agonist in the absence of compound. […]

T1 sequence (P31424 21-1203): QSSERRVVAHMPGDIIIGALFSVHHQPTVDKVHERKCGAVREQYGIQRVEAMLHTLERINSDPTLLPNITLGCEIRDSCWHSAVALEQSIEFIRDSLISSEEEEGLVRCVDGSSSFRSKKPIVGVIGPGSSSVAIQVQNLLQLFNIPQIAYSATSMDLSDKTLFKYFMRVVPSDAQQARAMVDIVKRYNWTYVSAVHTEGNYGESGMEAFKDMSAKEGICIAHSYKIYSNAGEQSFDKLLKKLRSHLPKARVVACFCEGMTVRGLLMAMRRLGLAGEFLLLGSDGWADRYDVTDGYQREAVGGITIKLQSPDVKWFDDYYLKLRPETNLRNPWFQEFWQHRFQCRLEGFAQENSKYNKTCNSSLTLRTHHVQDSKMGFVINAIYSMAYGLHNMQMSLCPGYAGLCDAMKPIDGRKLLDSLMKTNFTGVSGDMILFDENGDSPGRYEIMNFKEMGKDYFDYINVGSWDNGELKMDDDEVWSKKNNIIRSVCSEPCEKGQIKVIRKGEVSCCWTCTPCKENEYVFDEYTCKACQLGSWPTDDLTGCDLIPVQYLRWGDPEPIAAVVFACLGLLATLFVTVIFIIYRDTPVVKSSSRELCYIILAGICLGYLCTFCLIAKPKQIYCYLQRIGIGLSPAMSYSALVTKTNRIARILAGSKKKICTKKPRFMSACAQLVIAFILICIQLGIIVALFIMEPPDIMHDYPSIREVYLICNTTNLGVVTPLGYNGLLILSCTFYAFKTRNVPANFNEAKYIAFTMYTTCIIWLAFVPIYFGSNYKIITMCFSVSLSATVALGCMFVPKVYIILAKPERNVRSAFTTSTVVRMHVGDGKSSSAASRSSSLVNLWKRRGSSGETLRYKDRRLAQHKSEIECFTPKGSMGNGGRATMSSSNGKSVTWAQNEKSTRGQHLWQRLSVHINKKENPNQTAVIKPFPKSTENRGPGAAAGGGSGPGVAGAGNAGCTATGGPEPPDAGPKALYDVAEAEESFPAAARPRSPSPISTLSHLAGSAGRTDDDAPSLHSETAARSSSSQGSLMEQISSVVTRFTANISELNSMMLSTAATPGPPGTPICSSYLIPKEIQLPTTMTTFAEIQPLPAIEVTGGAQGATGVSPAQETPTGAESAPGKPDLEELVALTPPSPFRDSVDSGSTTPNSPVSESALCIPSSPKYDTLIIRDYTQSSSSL

Structure (SMILES)	EC50 [nM]	mGluR5 Potentiator Max
O=C(CN1CCc2cc(C#Cc3ccccc3)ccc2C1=O)N1CCOCC1 [VU000130]	2350	55.4
O=C1NCCc2cc(C#Cc3ccccc3Cl)ccc21 [VU000111]	4890	53.2
CN1CCN(C(=O)CN2CCc3cc(C#Cc4ccccc4)ccc3C2=O)CC1 [VU000131]	7200	35.4
O=C1NCCc2cc(C#Cc3cc(F)cc(F)c3)ccc21 [VU000116]	3000	35.6
CCOC(=O)C(CC)N1CCc2cc(C#Cc3ccccc3)ccc2C1=O (stereo not shown) [VU000073]	87.7	85.4
CN1CCc2cc(C#Cc3ccccc3)ccc2C1=O [VU000068]	25.4	53.4
CCCN1CCc2cc(C#Cc3ccccc3)ccc2C1=O [VU000069]	16.2	96.5
O=C1NCCc2cc(C#Cc3ccncc3)ccc21 [VU000117]	243	58
O=C1NCCc2cc(C#Cc3cccc(C(F)(F)F)c3)ccc21 [VU000120]	–	33.5
O=C(CN1CCc2cc(C#Cc3ccccc3)ccc2C1=O)NCC1CC1 [VU000124]	953	53.7
O=C1c2ccc(C#Cc3ccccc3)cc2CCN1CCN1CCC1 [VU000100]	4040	76.3
O=C(CN1CCc2cc(C#Cc3ccccc3)ccc2C1=O)NC1CC1 [VU000125]	3080	52.6
O=C1NCCc2cc(C#Cc3ccc(F)cc3F)ccc21 [VU000115]	853	58.7
O=C1NCCc2cc(C#Cc3ccc(F)cc3)ccc21 [VU000107]	259	81
O=C(CN1CCc2cc(C#Cc3ccccc3)ccc2C1=O)NCCN1CCCCC1 [VU000129]	–	30
O=C1c2ccc(C#Cc3ccccc3)cc2CCN1CC1CCC1 [VU000099]	26.7	90.7

Now from value to compound:

EC50 [nM]	mGluR5 Potentiator Max	Structure (SMILES)
612	53.4	Cc1ccccc1C#Cc1ccc2c(c1)CCNC2=O [VU000105]
–	34.8	O=C1NCCc2cc(C#Cc3ccccc3C(F)(F)F)ccc21 [VU000121]
17.5	69.4	O=C1c2ccc(C#Cc3ccccc3)cc2CCN1CC1CC1 [VU000098]
–	28.9	CN(C)c1ccc(C#Cc2ccc3c(c2)CCNC3=O)cc1 [VU000118]
3390	58.1	COc1cccc(C#Cc2ccc3c(c2)CCNC3=O)c1 [VU000110]
–	37.6	O=C(CN1CCc2cc(C#Cc3ccccc3)ccc2C1=O)N1CCC(O)CC1 [VU000128]
145	80.4	O=C1NCCc2cc(C#Cc3ccccc3F)ccc21 [VU000108]
–	28.2	COc1ccc(C#Cc2ccc3c(c2)CCNC3=O)cc1 [VU000109]
3060	52.3	COCCNC(=O)CN1CCc2cc(C#Cc3ccccc3)ccc2C1=O [VU000127]
546	89.9	O=C1c2ccc(C#Cc3ccccc3)cc2CCN1Cc1ccccc1 [VU000071]
77.3	88.4	O=C(CN1CCc2cc(C#Cc3ccccc3)ccc2C1=O)OCc1ccccc1 [VU000072]
470	67.9	O=C1NCCc2cc(C#Cc3cccc(Cl)c3)ccc21 [VU000114]
96	96.7	CCCCN1CCc2cc(C#Cc3ccccc3)ccc2C1=O [VU000070]
3570	84	O=C1c2ccc(C#Cc3ccccc3)cc2CCN1CCN1CCOCC1 [VU000101]
172	75.7	Cc1cccc(C#Cc2ccc3c(c2)CCNC3=O)c1 [VU000106]
–	28.6	O=C1NCCc2cc(C#Cc3ccc(Cl)cc3)ccc21 [VU000113]
–	29.7	COc1ccc(C#Cc2ccc3c(c2)CCNC3=O)c(C)c1 [VU000119]
4040	45.7	O=C1c2ccc(C#Cc3ccccc3)cc2CCN1CCN1CCC(O)CC1 [VU000102]
1.66	35.4	CN(C)CCNC(=O)CN1CCc2cc(C#Cc3ccccc3)ccc2C1=O [VU000126]
3670	49.7	Cc1cc(C#Cc2ccc3c(c2)CCNC3=O)ccc1F [VU000112]
